Measured values from the NIST ThermoML archive (doi:10.1021/acs.jced.8b00975).

Assay: xn = mol fraction of the nth substance listed
Details: Liquid, Vibrating tube method

C=C(C)C(=O)OCCN(C)C [2-(dimethylamino)ethyl methylpropenoate] + CCCCCO
mass density [kg/m3]
Details	100 kPa	5000 kPa	10000 kPa	15000 kPa	20000 kPa	25000 kPa	30000 kPa	35000 kPa
303.15 K, x1 = 0.0307	–	–	–	–	828.2	831.19	834.07	836.92
303.15 K, x1 = 0.0604	–	–	–	–	833.79	836.81	839.72	842.58
303.15 K, x1 = 0.1009	–	–	–	–	841.01	844.07	847.03	849.93
303.15 K, x1 = 0.2025	–	–	–	–	857.79	860.91	863.93	866.88
303.15 K, x1 = 0.3	–	–	–	–	871.95	875.13	878.24	881.32
303.15 K, x1 = 0.3999	–	–	–	–	884.85	888.08	891.24	894.35
303.15 K, x1 = 0.4506	–	–	–	–	890.84	894.11	897.3	900.41
303.15 K, x1 = 0.5037	–	–	–	–	896.76	900.07	903.29	906.44
303.15 K, x1 = 0.5495	–	–	–	–	901.5	904.82	908.07	911.28
303.15 K, x1 = 0.6012	–	–	–	–	906.65	909.98	913.25	916.5
303.15 K, x1 = 0.7014	–	–	–	–	915.83	919.2	922.54	925.89
303.15 K, x1 = 0.8023	–	–	–	–	924.05	927.5	930.88	934.23
303.15 K, x1 = 0.9025	–	–	–	–	931.37	934.86	938.3	941.71
303.15 K, x1 = 0.9307	–	–	–	–	933.38	936.89	940.33	943.73
303.15 K, x1 = 0.9625	–	–	–	–	935.55	939.05	942.5	945.92
313.15 K, x1 = 0.0305	806.61	810.57	814.26	817.73	821.04	824.24	827.39	830.53
313.15 K, x1 = 0.0602	812.04	816	819.71	823.21	826.55	829.77	832.92	836.03
313.15 K, x1 = 0.1004	819.08	823.09	826.82	830.32	833.66	836.89	840.06	843.25
313.15 K, x1 = 0.2011	835.38	839.35	843.09	846.64	850.04	853.32	856.53	859.71
313.15 K, x1 = 0.2999	849.45	853.38	857.13	860.71	864.15	867.48	870.73	873.91
313.15 K, x1 = 0.4001	862.05	866.03	869.81	873.43	876.91	880.27	883.53	886.72
313.15 K, x1 = 0.4514	867.85	871.88	875.71	879.36	882.87	886.24	889.51	892.71
313.15 K, x1 = 0.498	872.93	876.96	880.8	884.47	888	891.4	894.7	897.93
313.15 K, x1 = 0.5495	878.17	882.25	886.12	889.81	893.35	896.76	900.07	903.31
313.15 K, x1 = 0.5984	882.9	887.01	890.9	894.6	898.15	901.58	904.91	908.18
313.15 K, x1 = 0.7004	892.03	896.09	900.01	903.79	907.43	910.93	914.29	917.51
313.15 K, x1 = 0.8001	900.15	904.24	908.18	911.97	915.62	919.14	922.52	925.76
313.15 K, x1 = 0.8995	907.42	911.49	915.45	919.28	922.99	926.57	930.03	933.36
313.15 K, x1 = 0.9328	909.62	913.75	917.76	921.63	925.35	928.93	932.36	935.63
313.15 K, x1 = 0.9616	911.53	915.62	919.61	923.5	927.26	930.88	934.33	937.6
